The record followed here is patent publication US20090227587A1, “Pyrimidines as inhibitors of phosphoinositide-3-kinases (PI3K)” (Warner-Lambert Company LLC, priority 2003, published 2009).

In this assay the target is T1, p101/p110γ protein (PI3Kγ) (Homo sapiens, UniProt P48736).
T1 construct: HA; made in house; host or cells: Spodoptera frugiperda (Sf9) cells, baculovirus co-infection
T1 sequence (P48736 whole entry, species assumed): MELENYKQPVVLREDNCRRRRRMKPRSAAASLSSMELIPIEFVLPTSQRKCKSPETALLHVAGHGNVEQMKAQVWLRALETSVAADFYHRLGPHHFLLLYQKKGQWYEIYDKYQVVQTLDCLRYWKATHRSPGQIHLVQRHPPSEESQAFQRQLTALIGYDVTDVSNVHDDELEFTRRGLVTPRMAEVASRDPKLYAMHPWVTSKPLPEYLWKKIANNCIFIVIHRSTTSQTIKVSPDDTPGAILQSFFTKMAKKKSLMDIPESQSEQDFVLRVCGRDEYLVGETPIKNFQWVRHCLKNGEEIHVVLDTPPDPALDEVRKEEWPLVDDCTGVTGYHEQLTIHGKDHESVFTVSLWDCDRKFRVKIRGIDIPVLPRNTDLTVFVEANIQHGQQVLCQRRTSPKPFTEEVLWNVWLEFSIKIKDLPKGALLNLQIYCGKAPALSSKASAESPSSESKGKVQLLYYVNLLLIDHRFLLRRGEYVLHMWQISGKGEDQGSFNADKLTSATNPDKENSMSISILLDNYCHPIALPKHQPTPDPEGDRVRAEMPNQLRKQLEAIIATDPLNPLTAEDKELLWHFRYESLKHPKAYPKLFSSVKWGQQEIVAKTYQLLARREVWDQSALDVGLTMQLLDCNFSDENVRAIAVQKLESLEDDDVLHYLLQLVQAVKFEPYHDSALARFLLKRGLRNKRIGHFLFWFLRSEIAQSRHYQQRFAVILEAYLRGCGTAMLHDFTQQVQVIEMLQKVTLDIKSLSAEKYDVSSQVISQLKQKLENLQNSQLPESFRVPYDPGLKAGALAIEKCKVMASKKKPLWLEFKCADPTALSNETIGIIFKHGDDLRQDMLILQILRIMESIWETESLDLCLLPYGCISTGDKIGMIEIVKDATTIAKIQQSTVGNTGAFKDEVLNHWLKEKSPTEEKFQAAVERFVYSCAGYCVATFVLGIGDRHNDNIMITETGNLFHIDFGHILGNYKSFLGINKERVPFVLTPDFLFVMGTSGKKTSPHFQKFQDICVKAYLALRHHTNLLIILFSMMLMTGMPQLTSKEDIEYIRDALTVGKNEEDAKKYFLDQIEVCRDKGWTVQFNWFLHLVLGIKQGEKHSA
T1 sequence (Q8WYR1 whole entry partner, species assumed): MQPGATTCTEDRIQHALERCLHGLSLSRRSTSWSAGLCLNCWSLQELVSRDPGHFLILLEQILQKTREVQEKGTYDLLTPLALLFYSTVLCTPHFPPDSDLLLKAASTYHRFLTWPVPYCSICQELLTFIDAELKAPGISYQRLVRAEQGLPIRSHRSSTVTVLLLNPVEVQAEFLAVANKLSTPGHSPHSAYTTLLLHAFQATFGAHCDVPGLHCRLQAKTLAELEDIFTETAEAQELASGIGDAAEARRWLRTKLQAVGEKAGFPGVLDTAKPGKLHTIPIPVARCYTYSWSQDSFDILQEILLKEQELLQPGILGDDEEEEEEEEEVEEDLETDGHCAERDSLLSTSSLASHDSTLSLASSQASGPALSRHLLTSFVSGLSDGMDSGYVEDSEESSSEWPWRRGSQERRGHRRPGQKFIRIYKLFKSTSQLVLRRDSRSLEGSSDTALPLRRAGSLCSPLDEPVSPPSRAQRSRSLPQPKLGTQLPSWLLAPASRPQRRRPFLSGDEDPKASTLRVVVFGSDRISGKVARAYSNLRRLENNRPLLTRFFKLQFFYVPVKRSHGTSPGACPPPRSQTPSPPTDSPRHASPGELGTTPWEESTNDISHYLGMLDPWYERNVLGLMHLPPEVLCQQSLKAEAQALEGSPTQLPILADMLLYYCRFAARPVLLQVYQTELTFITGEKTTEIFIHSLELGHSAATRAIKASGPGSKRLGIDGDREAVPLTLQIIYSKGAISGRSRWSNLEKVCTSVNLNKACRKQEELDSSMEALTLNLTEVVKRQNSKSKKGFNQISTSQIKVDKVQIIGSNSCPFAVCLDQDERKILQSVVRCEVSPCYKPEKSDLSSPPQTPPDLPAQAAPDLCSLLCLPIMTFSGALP
Briefly: PI3Kγ in vitro kinase assay. The class given is biochemical. Conditions: purified recombinant p101/p110γ with G protein β1/γ2 subunits, 20 μM ATP, PIP2 lipid micelles. As to the method:
Spodtera frugiperda cells, grown in ESF921 media, were co-infected with baculovirus expressing a glu-tagged p101 and baculovirus expressing an HA-tagged p110γ, at a 3:1 ratio of p101 baculovirus to p110γ baculovirus. Sf9 cells were grown to 1×10^7 total cells/mL in 10 L bioreactors and harvested 48-72 hours post infection. Samples of infected cells were then tested for expression of p101/p110γ PI3 kinase by immunoprecipitation and Western Blot analysis methods (see below).
To purify PI3Kγ, 4 volumes of room temperature hypotonic lysis buffer (1 mM MgCl2, 1 mM DTT, 5 mM EGTA, 1 mM Pefabloc, 0.5 μM aprotinin, 5 μM leupeptin, 2 μM pepstatin, 5 μM E64, pH 8) per gram of cell paste, was poured onto frozen cell pellets with stirring, then lysed in a nitrogen “bomb” at 400 psi (599HC T316, Parr Instrument Co, Moline, Ill.). NaCl was added to 150 mM, and sodium cholate was added to 1% and mixed for another 45 minutes. The lysates were clarified by centrifugation for 25 minutes at 14,000 rpm. The lysates were then loaded over anti-glu-linked Protein-G Sepaharose beads (Covance Research Products, Richmond, Calif.) using 20 mL resin/50 g cell paste. The column was washed with 15 volumes of wash buffer (1 mM DTT, 0.2 mM EGTA, 1 mM Pefabloc, 0.5 μM aprotinin, 5 μM leupeptin, 2 μM pepstatin, 5 μM E64, 150 mM NaCl, 1% sodium cholate, pH 8). PI3Kγ was eluted with 6 column volumes of wash buffer that contain 100 μg/mL of a peptide that competes for binding of the glu tag. The column fractions with the eluted protein (determined by taking OD280 readings) were collected and dialyzed in 0.2 mM EGTA, 1 mM DTT, 1 mM Pefabloc, 5 μM leupeptin, 0.5% sodium cholate, 150 mM NaCl, and 50% glycerol, pH 8. The fractions were stored at −80° C. until further use.
Spodtera frugiperda cells were coinfected with baculovirus expressing a glu-tagged G protein β1 and baculovirus expressing a G protein […], at a 1:1 ratio of glu-tagged G protein […] baculovirus to G protein β2 baculovirus. Sf9 cells are grown in 10 L bioreactors and harvested 48-72 hours post infection. Samples of infected cells were tested for G protein β1/β2 expression by Western Blot analysis, as described below. Cell lysates were homogenized and loaded onto a column of glu-tagged beads as in Biological Example 1 and competed off the column with a glu peptide and processed as described in Biological Example 1.
The inhibitory properties of the compounds in Table 1 were assayed in an in vitro PI3K assay. In a 96-well polypropylene plate, each well was spotted with 2 μL of 50 times the desired final concentration of compound in DMSO. Purified recombinant p101/p110γ protein (0.03 μg; ˜2.7 nM) and G protein β1/γ2 subunits (0.09 μg; ˜57.7 nM) for each reaction was combined in the assay buffer (30 mM HEPES, 100 mM NaCl, 1 mM EGTA, and 1 mM DTT). ATP and [γ-^32P-ATP] (0.09 μCi) were added to this mixture so that the final ATP concentration in the reaction was 20 μM. Lipid micelles were formed by sonicating phosphatidylinositol-4,5-diphosphate (PIP2), phosphatidylethanolamine (PE), and Na-cholate in the assay buffer for 10 minutes, adding MgCl2 and incubating on ice for 20 minutes, for final concentrations of 25 μM PIP2, 300 μM PE, 0.02% Na-cholate, and 10 mM MgCl2 in the reaction. The reactions were started by adding equal volumes lipid and enzyme mixture in a total volume of 50 μL, allowed to run for 20 minutes at room temperature, and stopped with 100 μL 75 mM H3PO4. The lipid product was transferred to a glass fiber filter plate and washed with 75 mM H3PO4 several times. The presence of radioactive lipid product (PIP3) was measured by adding Wallac Optiphase mix to each well and counting in a Wallac 1450 Trilux plate reader (PerkinElmer Life Sciences Inc., Boston, Mass. 02118). The IC50 for each compound tested is reported in μM in the Tables above.
The term IC50 denotes the point on the concentration scale where inhibition reaches its midpoint. Consider `O=C(Nc1nn[nH]n1)c1cnc(N2CCOCC2)nc1OC1CCCC1` [Example 2, 4-Cyclopentyloxy-2-morpholin-4-yl-pyrimidine-5-carboxylic acid (2H-tetrazol-5-yl)-amide], for which the IC50 amounted to 1540 nM. On to `CC(C)Oc1nc(N2CCOCC2)ncc1C(=O)Nc1nn[nH]n1` [Example 3, 4-Isopropoxy-2-morpholin-4-yl-pyrimidine-5-carboxylic acid (2H-tetrazol-5-yl)-amide], for which the IC50 was found to be 87500 nM.

Turning to `O=C(Nc1nn[nH]n1)c1cnc(N2CCOCC2)nc1OC1CCCCC1` [Example 4, 4-Cyclohexyloxy-2-morpholin-4-yl-pyrimidine-5-carboxylic acid (2H-tetrazol-5-yl)-amide], the IC50 was found to be 1740 nM. For `O=C(Nc1nn[nH]n1)c1cnc(N2CCOCC2)nc1OC1CCCCCCC1` [Example 5, 4-Cyclooctyloxy-2-morpholin-4-yl-pyrimidine-5-carboxylic acid (2H-tetrazol-5-yl)-amide], the IC50 came to 502 nM. Turning to `O=C(Nc1nn[nH]n1)c1cnc(N2CCOCC2)nc1OCCC1CCCCC1` [Example 6, 4-(2-Cyclohexyl-ethoxy)-2-morpholin-4-yl-pyrimidine-5-carboxylic acid (2H-tetrazol-5-yl)-amide], the IC50 was determined as 10100 nM. With `O=C(Nc1nn[nH]n1)c1cnc(N2CCOCC2)nc1OCC1CCCCC1` [Example 7, 4-Cyclohexylmethoxy-2-morpholin-4-yl-pyrimidine-5-carboxylic acid (2H-tetrazol-5-yl)-amide], the IC50 is 1840 nM. The value for `COCCOc1nc(N2CCOCC2)ncc1C(=O)Nc1nn[nH]n1` [Example 8, 4-(2-Methoxy-ethoxy)-Z-morpholin-4-yl-pyrimidine-5-carboxylic acid (2H-tetrazol-5-yl)-amide] was 2320 nM; that for `CC1(C)CCCC(Oc2nc(N3CCOCC3)ncc2C(=O)Nc2nn[nH]n2)C1` (stereo not drawn) [Example 9, 4-(3,3-Dimethyl-cyclohexyloxy)-2-morpholin-4-yl-pyrimidine-5-carboxylic acid (2H-tetrazol-5-yl)-amide] was 1360 nM. For the compound `O=C(Nc1nn[nH]n1)c1cnc(N2CCOCC2)nc1OC1CCOCC1` [Example 10, 2-Morpholin-4-yl-4-(tetrahydro-pyran-4-yloxy)-pyrimidine-5-carboxylic acid (2H-tetrazol-5-yl)-amide], the IC50 turned out to be 10500 nM.

`O=C(Nc1nn[nH]n1)c1cnc(N2CCOCC2)nc1OC1C2CC3CC(C2)CC1C3` (stereo not drawn) [Example 11, 4-(Adamantan-2-yloxy)-2-morpholin-4-yl-pyrimidine-5-carboxylic acid (2H-tetrazol-5-yl)-amide]: the 50% inhibitory concentration (IC50) came out at 485 nM. For the compound `O=C(Nc1nn[nH]n1)c1cnc(N2CCOCC2)nc1OC1CC2CCC1C2` (stereo not drawn) [Example 12, 4-(Bicyclo[2.2.1]hept-2-yloxy)-2-morpholin-4-yl-pyrimidine-5-carboxylic acid (2H-tetrazol-5-yl)-amide], the 50% inhibitory concentration (IC50) was found to be 845 nM.

As for `CC(C)(C)COc1nc(N2CCOCC2)ncc1C(=O)Nc1nn[nH]n1` [Example 13, 4-(2,2-Dimethyl-propoxy)-2-morpholin-4-yl-pyrimidine-5-carboxylic acid (2H-tetrazol-5-yl)-amide], the IC50 was determined as 2060 nM.

`CC(C)C(C)Oc1nc(N2CCOCC2)ncc1C(=O)Nc1nn[nH]n1` (stereo not drawn) [Example 14, 4-(1,2-Dimethyl-propoxy)-2-morpholin-4-yl-pyrimidine-5-carboxylic acid (2H-tetrazol-5-yl)-amide]: the IC50 worked out at 1160 nM. As to `CC1(COc2nc(N3CCOCC3)ncc2C(=O)Nc2nn[nH]n2)CC1` [Example 15, 4-(1-Methyl-cyclopropylmethoxy)-2-morpholin-4-yl-pyrimidine-5-carboxylic acid (2H-tetrazol-5-yl)-amide], the IC50 was 1690 nM. On to `CC1CC(C)CC(Oc2nc(N3CCOCC3)ncc2C(=O)Nc2nn[nH]n2)C1` (stereo not drawn) [Example 16, 4-(3,5-Dimethyl-cyclohexyloxy)-2-morpholin-4-yl-pyrimidine-5-carboxylic acid (2H-tetrazol-5-yl)-amide], for which the IC50 came to 210 nM. Consider `CC(C)c1ccc(Oc2nc(N3CCOCC3)ncc2C(=O)Nc2nn[nH]n2)cc1` [Example 17, 4-(4-Isopropyl-phenoxy)-2-morpholin-4-yl-pyrimidine-5-carboxylic acid (2H-tetrazol-5-yl)-amide], for which the IC50 was 805 nM. For the compound `O=C(Nc1nn[nH]n1)c1cnc(N2CCOCC2)nc1Oc1ccc(C2CCCCC2)cc1` [Example 18, 4-(4-Cyclohexyl-phenoxy)-2-morpholin-4-yl-pyrimidine-5-carboxylic acid (2H-tetrazol-5-yl)-amide], the IC50 is 154 nM. `O=C(Nc1nnn[nH]1)c1cnc(N2CCOCC2)nc1NC1CCCC1` [Example 19, 4-Cyclopentylamino-2-morpholin-4-yl-pyrimidine-5-carboxylic acid (1H-tetrazol-5-yl)-amide]: the IC50 stood at 32700 nM. `O=C(Nc1nnn[nH]1)c1cnc(N2CCOCC2)nc1NCc1ccccc1` [Example 20, 4-Benzylamino-2-morpholin-4-ylpyrimidine-5-carboxylic acid (1H-tetrazol-5-yl)-amide]: the IC50 is 39100 nM.

As for `O=C(Nc1nnn[nH]1)c1cnc(N2CCOCC2)nc1NC1CCCCC1` [Example 21, 4-Cyclohexylamino-2-morpholin-4-yl-pyrimidine-5-carboxylic acid (1H-tetrazol-5-yl)-amide], the IC50 worked out at 28600 nM. As for `Cc1nc(N2CCOCC2)nc(OC2CCCCCC2)c1C(=O)Nc1nn[nH]n1` [Example 22, 4-Cycloheptyloxy-6-methyl-2-morpholin-4-yl-pyrimidine-5-carboxylic acid (2H-tetrazol-5-yl)-amide], the figure is 8440 nM.
